Results taken from PMC12327690, “Secreted LysM proteins are required for niche competition and full virulence in Pseudomonas savastanoi during host plant infection” (PLOS Pathogens, 2025).

Target: T1, LysM3 (Pseudomonas savastanoi, UniProt Q48F89)
T1 construct: gene PSPPH_3810; LysM + M23 domains; pET28a::lysM3 in E. coli BL21(DE3), HisTrap IMAC then SEC
Experiment: nanoDSF (Tycho NT.[…]) thermal shift
Type: binding
Details: 1 mM ligand, 5 µM protein, no Zn2+, 20 mM Hepes pH 8.0, 150 mM NaCl

T1 sequence (Q48F89 entry or part of it): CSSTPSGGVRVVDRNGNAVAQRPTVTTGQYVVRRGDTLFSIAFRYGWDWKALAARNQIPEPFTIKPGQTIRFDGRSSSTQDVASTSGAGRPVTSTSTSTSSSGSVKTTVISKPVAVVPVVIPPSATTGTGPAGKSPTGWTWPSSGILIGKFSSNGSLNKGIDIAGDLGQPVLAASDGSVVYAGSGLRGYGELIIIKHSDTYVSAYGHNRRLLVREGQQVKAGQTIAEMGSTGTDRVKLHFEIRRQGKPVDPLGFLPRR

Row | Compound | Ti with ligand (LysM3 alone 51.4 ± 0.1) [°C]
1 | CC(=O)N[C@H]1[C@H](O[C@H]2[C@H](O)[C@@H](NC(C)=O)C(O)O[C@@H]2CO)O[C@H](CO)[C@@H](O[C@@H]2O[C@H](CO)[C@@H](O[C@@H]3O[C@H](CO)[C@@H](O)[C@H](O)[C@H]3NC(C)=O)[C@H](O)[C@H]2NC(C)=O)[C@@H]1O (some centres unmarked) [NAG4, tetra-N-acetylglucosamine] | 52.9 ± 0.1
2 | CC(=O)N[C@H]1[C@H](O[C@H]2[C@H](O)[C@@H](NC(C)=O)[C@H](O[C@H]3[C@H](O)[C@@H](NC(C)=O)C(O)O[C@@H]3CO)O[C@@H]2CO)O[C@H](CO)[C@@H](O[C@@H]2O[C@H](CO)[C@@H](O[C@@H]3O[C@H](CO)[C@@H](O[C@@H]4O[C@H](CO)[C@@H](O)[C@H](O)[C@H]4NC(C)=O)[C@H](O)[C@H]3NC(C)=O)[C@H](O)[C@H]2NC(C)=O)[C@@H]1O (some centres unmarked) [NAG6, hexa-N-acetylglucosamine] | 52.7 ± 0.4
